Results from patent US20090099029A1, “Methods and substrates for conducting assays” (Invitrogen Corporation, priority 2005, published 2009).

Experiments:
tyrosine kinases = experiment: Inhibitor specificity profiling on kinase microarray (fifty kinases, gamma-AT33P); conditions: inhibitor 100 μm; substrate mixture of MBP, histone and casein
Protocol: To coat slides with kinase substrate, the substrates are diluted to 10 ng/μL in 1×PBS and 180-200 μL of substrate solution are pipetted onto one slide, e.g., a glass slide, aldehyde treated slides (TeleChem International, Inc.), nitrocellulose-coated slides (Schleicher & Schuell), slides with an amino-silane surface (Corning). A second slide is then placed on top of the first slide so that the sides to be deposited with kinases face each other. Care should be taken that the liquid covers the entire slide and that there are no air bubbles. The slides are placed in a 50 mL conical tube, making sure they are laying flat and incubated at 4° C. for one hour to several days.
Subsequently, approximately 100 mL of PBST are added to the dish. The slides are then washed for one hour at 4° C. with shaking. The PBST is then discarded and the slides are gently rinsed with dH2O using a squirt bottle. After rinsing, the slides are placed into a slide boxes and centrifuged at 4000 rpm for one minute. The slides are then stored at 4° C. until printing with kinase.
1 mL of kinase assay buffer for every 12 glass slides to be probed is prepared. 6 μL of gamma-AT^33P (10 μCi/μL) are added to the assay buffer. The slides are placed in 50 mL conical tubes, laying flat, proteins facing up. 70 μL to 150 μL of the kinase assay buffer with gamma-AT^33P are added onto each slide. […]

PRKCD = PRKCD (Homo sapiens, UniProt Q05655); experiment: Dose-response analysis on 10-well kinase microarray; type: biochemical; conditions: different inhibitor concentration in each well; substrate MBP, histone and casein
PRKCD, sequence (Q05655 whole entry): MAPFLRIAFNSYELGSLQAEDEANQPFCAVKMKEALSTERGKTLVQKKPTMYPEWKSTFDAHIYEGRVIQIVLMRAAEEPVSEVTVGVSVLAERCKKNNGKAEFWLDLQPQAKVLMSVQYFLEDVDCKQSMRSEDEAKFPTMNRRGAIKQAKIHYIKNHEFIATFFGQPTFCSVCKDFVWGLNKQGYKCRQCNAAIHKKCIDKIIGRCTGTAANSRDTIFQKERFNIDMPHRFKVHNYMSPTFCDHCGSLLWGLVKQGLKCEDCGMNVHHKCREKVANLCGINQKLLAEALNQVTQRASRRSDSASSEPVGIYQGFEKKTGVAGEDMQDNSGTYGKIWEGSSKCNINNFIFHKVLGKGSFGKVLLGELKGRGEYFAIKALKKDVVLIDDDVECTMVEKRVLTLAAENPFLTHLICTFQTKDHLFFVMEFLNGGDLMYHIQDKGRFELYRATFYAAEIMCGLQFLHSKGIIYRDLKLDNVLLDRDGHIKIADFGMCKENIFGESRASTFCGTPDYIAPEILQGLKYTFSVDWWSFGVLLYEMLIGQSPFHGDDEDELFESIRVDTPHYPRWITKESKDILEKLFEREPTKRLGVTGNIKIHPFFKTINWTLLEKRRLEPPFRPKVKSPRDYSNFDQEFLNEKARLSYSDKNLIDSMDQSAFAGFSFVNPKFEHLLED
Protocol: (§1) The wash solution is then discarded.
(§2) Microarrays were prepared with 10 wells/slide, wherein the kinases EPHB3, FYN, and PRKCD and their substrate were immobilized in each well.

EPHB3 = EPHB3 (Homo sapiens, UniProt P54753); experiment: as above; type: biochemical; conditions: different inhibitor concentration in each well; substrate MBP, histone and casein
EPHB3, sequence (P54753 34-998): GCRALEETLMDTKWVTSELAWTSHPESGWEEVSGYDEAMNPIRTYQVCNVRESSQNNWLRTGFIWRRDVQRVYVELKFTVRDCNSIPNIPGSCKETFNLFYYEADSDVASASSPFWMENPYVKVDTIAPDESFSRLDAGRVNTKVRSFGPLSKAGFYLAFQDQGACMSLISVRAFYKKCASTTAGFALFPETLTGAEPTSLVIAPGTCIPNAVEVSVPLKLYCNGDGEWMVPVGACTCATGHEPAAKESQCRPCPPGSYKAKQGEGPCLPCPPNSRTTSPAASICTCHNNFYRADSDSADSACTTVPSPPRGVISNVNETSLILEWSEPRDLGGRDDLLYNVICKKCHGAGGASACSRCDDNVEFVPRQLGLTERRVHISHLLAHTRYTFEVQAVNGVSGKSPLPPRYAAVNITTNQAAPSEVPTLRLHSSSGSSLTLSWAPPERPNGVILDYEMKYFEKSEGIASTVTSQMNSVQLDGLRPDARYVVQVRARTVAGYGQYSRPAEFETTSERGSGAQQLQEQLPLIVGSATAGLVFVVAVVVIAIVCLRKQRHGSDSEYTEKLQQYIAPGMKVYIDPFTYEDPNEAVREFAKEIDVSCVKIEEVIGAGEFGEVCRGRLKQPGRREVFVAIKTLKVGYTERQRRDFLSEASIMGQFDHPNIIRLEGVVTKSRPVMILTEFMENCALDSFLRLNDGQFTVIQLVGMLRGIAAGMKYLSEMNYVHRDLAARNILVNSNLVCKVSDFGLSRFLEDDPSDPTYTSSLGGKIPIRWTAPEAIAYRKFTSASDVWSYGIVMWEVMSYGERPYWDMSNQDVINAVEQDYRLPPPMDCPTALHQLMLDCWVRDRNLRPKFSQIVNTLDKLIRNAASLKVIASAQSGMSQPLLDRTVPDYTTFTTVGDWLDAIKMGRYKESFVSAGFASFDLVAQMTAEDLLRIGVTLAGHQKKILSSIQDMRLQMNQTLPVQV
Protocol: as §1
Microarrays were prepared with 10 wells/slide, wherein the kinases EPHB3, FYN, and PRKCD and their substrate were immobilized in each well. The slide was coated with substrate essentially as described in Example I. Subsequently, a gasket with 10 openings was applied to the surface of the slide thereby creating 10 wells, i.e., the gasket provides the barriers between the wells. The accession numbers for the different kinases in the NCBI database are: for FYN: NM_002037; for PRKCD: NM_006254; and for EPHB3: NM_004443.

FYN [1] = biological target: T1, FYN (Homo sapiens, UniProt P06241); experiment: Global specificity profiling experiment, single point inhibition on kinase microarray; type: biochemical; conditions: substrates histone, casein, MBP, polyEY
T1 sequence (P06241 whole entry): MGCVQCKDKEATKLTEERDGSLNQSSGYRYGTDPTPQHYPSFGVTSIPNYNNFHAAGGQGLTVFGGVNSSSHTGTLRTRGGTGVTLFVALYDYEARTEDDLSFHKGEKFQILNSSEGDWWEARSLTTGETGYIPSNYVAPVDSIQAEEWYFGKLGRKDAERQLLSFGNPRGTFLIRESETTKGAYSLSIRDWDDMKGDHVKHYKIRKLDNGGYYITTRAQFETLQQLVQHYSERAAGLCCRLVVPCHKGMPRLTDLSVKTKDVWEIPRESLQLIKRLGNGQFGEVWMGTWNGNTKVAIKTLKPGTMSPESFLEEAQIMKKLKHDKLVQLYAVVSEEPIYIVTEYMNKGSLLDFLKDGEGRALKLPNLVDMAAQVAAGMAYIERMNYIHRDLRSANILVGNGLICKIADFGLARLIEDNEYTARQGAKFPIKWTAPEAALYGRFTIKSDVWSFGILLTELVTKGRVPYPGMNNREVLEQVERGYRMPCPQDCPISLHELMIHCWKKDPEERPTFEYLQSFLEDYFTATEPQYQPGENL
Protocol: as §1
A mixture of generic kinase substrates (histone, casein, MBP, and polyEY) was used in the assay. The average of all signals from the same inhibitor or control experiment was calculated.
To expedite data analysis regarding the kinase families that are inhibited by a particular […], a graphical representation can be constructed of inhibition data for substrates in such a manner that phylogenetically related kinases can be spatially arranged on the graphical representation.

FYN [2] = biological target: T1, FYN; experiment: Dose-response analysis on 10-well kinase microarray; type: biochemical; conditions: different inhibitor concentration in each well; substrate MBP, histone and casein
Protocol: as §1, §2

CC(C)(C)n1nc(-c2ccc(Cl)cc2)c2c(N)ncnc21 [PP2]
inhibition of tyrosine kinases (tyrosine kinases): strongly inhibited | inhibition of PRKCD (dose-response) (PRKCD): not | inhibition of EPHB3 (dose-response) (EPHB3): strongly inhibits

CN[C@@H]1C[C@H]2O[C@@](C)([C@@H]1OC)n1c3ccccc3c3c4c(c5c6ccccc6n2c5c31)C(=O)NC4 [Staurosporine]
inhibition of FYN in global profiling (FYN [1]): inhibited | inhibition of FYN (dose-response) (FYN [2]): strongly inhibits | inhibition of EPHB3 (dose-response) (EPHB3): not
